Reference: US8795984B2, “Production of glycoproteins with reduced O-glycosylation” (Merck Sharp & Dohme Corp., priority 2005, dated 2014)

Experiments:
[1] = system: O-glycosylation of secreted recombinant reporter proteins; assay: Western blot of His-tagged Kringle 1-3 protein in growth media (FIG. 1); format: cell-based, Pichia pastoris; details: yJC53 treated with 2 or 20 μM, compared with pmt1Δ strain yJC55
Experimental: Kringle 1-3 protein expression for the transformed yeast strains was carried out at in shake flasks at 24° C. with buffered glycerol-complex medium (BMGY) consisting of 1% yeast extract, 2% peptone, 100 mM potassium phosphate buffer pH 6.0, 1.34% yeast nitrogen base, 4×10-5% biotin, and 1% glycerol. The induction medium for protein expression was buffered methanol-complex medium (BMMY) consisting of 1% methanol instead of glycerol in BMGY. Pmt inhibitor Pmti-1, Pmti-2, or Pmti-3 in methanol was added to the growth medium to a final concentration of 0.2 μM, 2 μM, or 20 μM at the time the induction medium was added. Cells were harvested and centrifuged at 2,000 rpm for five minutes. The Pmt inhibitors Pmti-1, Pmti-2, and Pmti-3 are essentially interchangeable, with small variations in ease of use. […]

[2] = Solubility in the cell culture conditions; format: physicochemical; details: in the cell culture conditions described (BMGY/BMMY)
Experimental: Kringle 1-3 protein expression for the transformed yeast strains was carried out at in shake flasks at 24° C. with buffered glycerol-complex medium (BMGY) consisting of 1% yeast extract, 2% peptone, 100 mM potassium phosphate buffer pH 6.0, 1.34% yeast nitrogen base, 4×10-5% biotin, and 1% glycerol. The induction medium for protein expression was buffered methanol-complex medium (BMMY) consisting of 1% methanol instead of glycerol in BMGY. Pmt inhibitor Pmti-1, Pmti-2, or Pmti-3 in methanol was added to the growth medium to a final concentration of 0.2 μM, 2 μM, or 20 μM at the time the induction medium was added. Cells were harvested and centrifuged at 2,000 rpm for five minutes. The Pmt inhibitors Pmti-1, Pmti-2, and Pmti-3 are essentially interchangeable, with small variations in ease of use.

In the case of `O=C(O)CN1C(=O)C(=Cc2ccc(OCc3ccccc3)c(OCc3ccccc3)c2)SC1=S` [Pmti-1, 5-[[3,4-bis(phenylmethoxy)phenyl]methylene]-4-oxo-2-thioxo-3-thiazolidineacetic Acid], the “O-glycosylation of Kringle 1-3 protein on Western blot” value [1] is reported as “reduced O-glycosylation to a level similar to that observed in a strain lacking Pmt1”.

With `O=C(O)CN1C(=O)/C(=C/c2ccc(OCCc3ccccc3)c(OC(CO)c3ccccc3)c2)SC1=S` (centres unmarked) [Pmti-3] the solubility [2] was “greater than that of Pmti-1 and Pmti-2”.
